# Literature values as cited in article doi:10.1101/2025.09.24.678446, “Exploiting Peptide Chirality and Transport to Dissect the Complex Mechanism of Action of Host Peptides on Bacteria” (bioRxiv, 2025).
# System: BacA
substance,measurement,value
bleomycin,transport by BacA,"BacA has previously been shown to transport many varieties of peptides, including bleomycin"
